Earlier results on one compound are cited in patent US7705000B2, “Oral suspension comprising meloxicam” (Janssen Pharmaceutica N.V., priority 2004, dated 2010).

For this series the following is noted: at a pH of 4.

On to `Cc1cnc(NC(=O)C2=C(O)c3ccccc3S(=O)(=O)N2C)s1` [meloxicam, 4-hydroxy-2-methyl-N-(5-methyl-2-thiazolyl)-2H-1,2-benzo-thiazine-3-carboxamide-1,1-dioxide], for which the solubility of meloxicam is 0.5 µg/mL.
